Results taken from PubChem BioAssay AID1963970 (Molecular Pharmacology Branch, DTP, NCI, 2024).

Tested on: 931267-113-T-J1-PDC multicell spheroid viability
Test: Anticancer human tumor 931267-113-T-J1-PDC patient-derived colon adenocarcinoma cell line growth inhibition [PI3K]
Conditions: for IC50: curve of first compound; for viability, T/C: stronger effect = lower value
Text: Combinatorial screen of targeted agents with the PI3K inhibitors inavolisib, alpelisib, duvelisib, and copanlisib in multi-cell type tumor spheroids
A high-throughput screen of multi-cell type tumor spheroids was designed to identify active combinations of targeted small molecules and PI3K pathway inhibitors. Complex spheroids include a stromal component modeled by human endothelial cells (HUVEC) and fibroblasts modeled by human mesenchymal stem cells (MSCs). The concentration ranges selected for each drug and investigational agent were based upon clinically achievable concentrations if the clinical Cmax of the agent was known.
Compounds. The drugs and investigational agents: inavolisib (NSC800729), alpelisib (NSC765974), duvelisib (NSC772469), copanlisib (NSC816437), ipatasertib (NSC767898), afuresertib (NSC778305), talazoparib (NSC767125), sapanisertib (NSC764658), selumetinib (NSC741078), tovorafenib (DAY101, NSC766906), vemurafenib (NSC761431), ravoxertinib (NSC781343), sotorasib (NSC818433), MRTX1133 (NSC 836407), abemaciclib (NSC 768073), palbociclib (NSC758247), venetoclax (NSC 766270), SY5609 (NSC837396), enzalutamide (NSC755605), and darolutamide (NSC825331), were obtained from the National Cancer Institute (NCI) Developmental Therapeutics Program Chemical Repository. The FDA-approved anticancer drug set is available from the NCI Developmental Therapeutics Program. […] The stock solutions were prepared in dimethyl sulfoxide (DMSO, Sigma-Aldrich, St. Louis, MO, cat. D2650) at 800-fold the tested concentration and stored at -70 degrees C prior to their use. All drugs and investigational agents were tested over a range starting from a high concentration at or near the clinical Cmax and decreasing in half-log increments. If the clinical Cmax for an agent had not been determined, the highest concentration tested was 10 microM.
Cell Culture. All cells were maintained in an incubator at 37 degrees C and 5% CO2 with 95% humidity. The PDC lines were cultured according to standard operating procedures established by the NCI PDMR (https://pdmr.cancer.gov/sops/default.htm). All PDCs were thawed and cultured in Matrigel-coated flasks prepared with a working solution of 1X Ham's F-12 nutrient mix, without supplementation (Invitrogen, Waltham, MA, cat. 11765054), 100 U/mL penicillin-streptomycin (Invitrogen, cat. 15140122), and 2.5% Matrigel (Corning Inc., Corning, NY, cat. 354248) for the first three passages. The 354836-022-R-J1-PDC, 475296-252-R-J1-PDC, and 997726-040-R-J2-PDC lines were cultured in 6A media, which includes advanced DMEM/F-12 (Thermo Fisher Scientific, cat. 12634028), 10 mM HEPES (Thermo Fisher Scientific, cat. 15630080), 1X GlutaMAX supplement (Thermo Fisher Scientific, cat. 35050061), 0.1 mg/mL primocin (InvivoGen, San Diego, CA, cat. ant-pm-2), 10% defined fetal bovine serum, heat inactivated (HyClone Laboratories Inc., Logan, UT, cat. SH30070.03HI), 50% L-WRN conditioned media (ATCC, cat. CRL-3276), 1.25 mM N-Acetyl-L-cysteine (Sigma-Aldrich, cat. A9165), 10 mM nicotinamide (Sigma-Aldrich, cat. N0636), 1X B-27 supplement (Thermo Fisher Scientific, cat. 17504044), 1X N-2 supplement (Thermo Fisher Scientific, cat. 17502048), and 10 microM Y-27632 dihydrochloride (Tocris Bioscience, Bristol, United Kingdom, cat. 1254). The 624824-186-R-J2-PDC line was cultured in 6C/Colon 1B media, which includes all 6A media components plus 50 ng/mL human EGF recombinant protein (Thermo Fisher Scientific, cat. PHG0311). […]

[1] = second compound 0.00316 µM, first compound 0.0316 µM
[2] = second compound 0.00316 µM, first compound 0.1 µM
[3] = second compound 0.01 µM, first compound 0.0316 µM
[4] = second compound 0.01 µM, first compound 0.1 µM
[5] = second compound 0.0316 µM, first compound 0.0316 µM
[6] = second compound 0.0316 µM, first compound 0.1 µM
[7] = second compound 0.1 µM, first compound 0.0316 µM
[8] = second compound 0.1 µM, first compound 0.1 µM
[9] = second compound 0.316 µM, first compound 0.0316 µM
[10] = second compound 0.316 µM, first compound 0.1 µM
[11] = second compound 1 µM, first compound 0.0316 µM
[12] = second compound 1 µM, first compound 0.1 µM
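Also: viability read 7 days after compound addition.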

SMILES: CC(=O)c1c(C)c2cnc(Nc3ccc(N4CCNCC4)cn3)nc2n(C2CCCC2)c1=O + CC(Nc1ccc2c(c1)OCCn1cc(N3C(=O)OCC3C(F)F)nc1-2)C(N)=O
- IC50 (second compound 0.00316 µM): > 0.1 µM
- IC50 (second compound 0.01 µM): > 0.1 µM
- IC50 (second compound 0.0316 µM): > 0.1 µM
- IC50 (second compound 0.1 µM): > 0.1 µM
- IC50 (second compound 0.316 µM): > 0.1 µM
- IC50 (second compound 1 µM): > 0.1 µM
- viability, T/C (second compound 0.00316 µM, first compound 0.000316 µM): 104%
- viability, T/C (second compound 0.00316 µM, first compound 0.001 µM): 110%
- viability, T/C (second compound 0.00316 µM, first compound 0.00316 µM): 95.1%
- viability, T/C (second compound 0.00316 µM, first compound 0.01 µM): 111%
- viability, T/C [1]: 105%
- viability, T/C [2]: 99.8%
- viability, T/C (second compound 0.01 µM, first compound 0.000316 µM): 111%
- viability, T/C (second compound 0.01 µM, first compound 0.001 µM): 101%
- viability, T/C (second compound 0.01 µM, first compound 0.00316 µM): 98.7%
- viability, T/C (second compound 0.01 µM, first compound 0.01 µM): 93.3%
- viability, T/C [3]: 108%
- viability, T/C [4]: 105%
- viability, T/C (second compound 0.0316 µM, first compound 0.000316 µM): 108%
- viability, T/C (second compound 0.0316 µM, first compound 0.001 µM): 93.5%
- viability, T/C (second compound 0.0316 µM, first compound 0.00316 µM): 91.9%
- viability, T/C (second compound 0.0316 µM, first compound 0.01 µM): 106%
- viability, T/C [5]: 110%
- viability, T/C [6]: 95.4%
- viability, T/C (second compound 0.1 µM, first compound 0.000316 µM): 100%
- viability, T/C (second compound 0.1 µM, first compound 0.001 µM): 97.7%
- viability, T/C (second compound 0.1 µM, first compound 0.00316 µM): 92.7%
- viability, T/C (second compound 0.1 µM, first compound 0.01 µM): 87.1%
- viability, T/C [7]: 105%
- viability, T/C [8]: 87.8%
- viability, T/C (second compound 0.316 µM, first compound 0.000316 µM): 92.1%
- viability, T/C (second compound 0.316 µM, first compound 0.001 µM): 88.1%
- viability, T/C (second compound 0.316 µM, first compound 0.00316 µM): 81%
- viability, T/C (second compound 0.316 µM, first compound 0.01 µM): 85.7%
- viability, T/C [9]: 91.6%
- viability, T/C [10]: 82.2%
- viability, T/C (second compound 1 µM, first compound 0.000316 µM): 75.9%
- viability, T/C (second compound 1 µM, first compound 0.001 µM): 74%
- viability, T/C (second compound 1 µM, first compound 0.00316 µM): 77.8%
- viability, T/C (second compound 1 µM, first compound 0.01 µM): 70.5%
- viability, T/C [11]: 80.1%
- viability, T/C [12]: 66.3%

SMILES: CNC(=O)c1ccc(N2C(=S)N(c3ccc(C#N)c(C(F)(F)F)c3)C(=O)C2(C)C)cc1F + CC(Nc1ccc2c(c1)OCCn1cc(N3C(=O)OCC3C(F)F)nc1-2)C(N)=O
- IC50 (second compound 0.00316 µM): > 10 µM
- IC50 (second compound 0.01 µM): > 10 µM
- IC50 (second compound 0.0316 µM): > 10 µM
- IC50 (second compound 0.1 µM): > 10 µM
- IC50 (second compound 0.316 µM): > 10 µM
- IC50 (second compound 1 µM): > 10 µM
- viability, T/C [1]: 99%
- viability, T/C [2]: 102%
- viability, T/C (second compound 0.00316 µM, first compound 0.316 µM): 85.9%
- viability, T/C (second compound 0.00316 µM, first compound 1 µM): 111%
- viability, T/C (second compound 0.00316 µM, first compound 3.16 µM): 119%
- viability, T/C (second compound 0.00316 µM, first compound 10 µM): 106%
- viability, T/C [3]: 107%
- viability, T/C [4]: 93.2%
- viability, T/C (second compound 0.01 µM, first compound 0.316 µM): 107%
- viability, T/C (second compound 0.01 µM, first compound 1 µM): 106%
- viability, T/C (second compound 0.01 µM, first compound 3.16 µM): 99.8%
- viability, T/C (second compound 0.01 µM, first compound 10 µM): 109%
- viability, T/C [5]: 97.2%
- viability, T/C [6]: 90.2%
- viability, T/C (second compound 0.0316 µM, first compound 0.316 µM): 96.4%
- viability, T/C (second compound 0.0316 µM, first compound 1 µM): 90.1%
- viability, T/C (second compound 0.0316 µM, first compound 3.16 µM): 95.1%
- viability, T/C (second compound 0.0316 µM, first compound 10 µM): 87.6%
- viability, T/C [7]: 98.4%
- viability, T/C [8]: 88.5%
- viability, T/C (second compound 0.1 µM, first compound 0.316 µM): 92.2%
- viability, T/C (second compound 0.1 µM, first compound 1 µM): 81.9%
- viability, T/C (second compound 0.1 µM, first compound 3.16 µM): 91.9%
- viability, T/C (second compound 0.1 µM, first compound 10 µM): 77.6%
- viability, T/C [9]: 82%
- viability, T/C [10]: 78.9%
- viability, T/C (second compound 0.316 µM, first compound 0.316 µM): 77%
- viability, T/C (second compound 0.316 µM, first compound 1 µM): 76.1%
- viability, T/C (second compound 0.316 µM, first compound 3.16 µM): 79.8%
- viability, T/C (second compound 0.316 µM, first compound 10 µM): 70%
- viability, T/C [11]: 76.3%
- viability, T/C [12]: 67.9%
- viability, T/C (second compound 1 µM, first compound 0.316 µM): 75.5%
- viability, T/C (second compound 1 µM, first compound 1 µM): 70%
- viability, T/C (second compound 1 µM, first compound 3.16 µM): 71.2%
- viability, T/C (second compound 1 µM, first compound 10 µM): 54.7%
